Experimental data reported in patent US20250248936A1 (priority 2022, published 2025).
Values joined by “and” are separate entries in the source; they are usually repeats but may differ in a detail not shown here. Identical values can stand only once.

How the values were obtained:
Assay type in all cases: in vivo, female turkeys
H. meleagridis [1] = test: Controlling Histomoniasis in turkeys (QSC, QS15 750 ppm); settings: MED 30 mg/kg bird/day, QSC 750 ppm
Procedure: A total of 200 3-week-old female turkeys were randomly grouped into 9 pens. The groups were: control (−) (CON), control (+) (POS), metronidazole (MED), two 750 PPM QSC-treated groups, and two groups treated with 750 PPM QS15-treated groups. The CON group was not challenged or treated with any product, POS was only inoculated a H. meleagridis suspension, and the MED group was inoculated with the same dose and treated with 30 mg/kg metronidazole per bird/day. The CON group was comprised of 16 young female turkeys, while the remainder comprised 23 each. Table 17 summarizes the bird distribution according to treatment, as well as the appropriate product dosage.
The treatments were started at 3 weeks of age. The H. meleagridis challenge suspension had approximately 100000 cells/mL and was inoculated at 4 weeks of […] age. Weight was measured at 3, 6 and 8 weeks of age. Feed intake was estimated at 6 and 8 weeks of age. The young female turkey mortality rate was recorded throughout the trial, and lesions were measured by using a previously standardized lesion scoring at 8 weeks of age.

H. meleagridis [2] = test: Controlling Histomoniasis in turkeys (QSC and QHS); settings: MED 30 mg/kg bird/day; QHS 1500 ppm; QSC 750 ppm
Procedure: A total of 160 3-week-old female turkeys were randomly grouped into 10 pens. The groups were: control (−) CON, control (+) POS, MED (metronidazole), and two different treatments, (QSC and QHS's active content under treatment) is set). Control group (−) was not challenged or treated with any product, control (+) was only inoculated with a H. meleagridis suspension, and the MED group was inoculated with the same dose and treated with metronidazole, 30 mg/kg bird/day. […] Table 22 summarizes bird distribution according to treatments, as well as the appropriate product dosage.
(§1) The treatments were started as of 3 weeks of age. The H. meleagridis challenge suspension contained 100000 cells/mL, approximately, and was inoculated as of 4 weeks of age, cloacal route. The female turkey mortality rate was recorded throughout the trial, and lesions were measured by using a previously standardized lesion scoring at 8 weeks of age.

H. meleagridis [3] = test: Controlling Histomoniasis in turkeys (QSC HD 1500 ppm); settings: MED 30 mg/kg bird/day
Procedure: A total of 160 3-week-old female turkeys were randomly grouped into 10 pens. The groups were: control (−) CON, control (+) POS, metronidazole (MED), two groups treated with QSC at 1500 ppm (HD greater dose than in the previous trial). The CON group was not challenged or treated with any product; POS control was only inoculated with a H. meleagridis suspension, and the MED group was inoculated with the same dose and treated with metronidazole, 30 mg/kg bird/day. […] Table 1208 summarizes bird distribution according to treatments, as well as the appropriate product dosage.
The treatments were started as of 3 weeks of age. The H. meleagridis challenge suspension was 100000 cell/mL, approximately, and was inoculated at 4 weeks of age, via cloacal route. Female turkey mortality rate was recorded throughout the trial, and lesions were measured by using a previously standardized lesion scoring at 8 weeks of age.

H. meleagridis [4] = test: Controlling Histomoniasis in turkeys (BQ batches 3250 ppm); settings: MED 30 mg/kg bird/day; BQ-1, BQ-2, BQ-3 3250 ppm
Procedure: A total of 200 3-week-old young female turkeys were randomly grouped in 10 pens. The groups were: control (−) CON, control (+) POS, MED (metronidazole), 3 groups treated with BQ. BQ is a quillay wood-based additive where three different batches were evaluated with (2.5-5.5%) saponins.
as §1, with “100000 cell/ml,” for “100000 cells/mL,”, “inoculated at” for “inoculated as of”, “age, via” for “age,”

Cc1ncc([N+](=O)[O-])n1CCO [MED, metronidazole]
Cecum lesion score (H. meleagridis [1]): 0.2a | Liver lesion score (H. meleagridis [1]): 0.0a | Mortality (%) (H. meleagridis [1]): 2% and 2a % | Cecum lesion score (H. meleagridis [2]): 1.5c | Liver lesion score (H. meleagridis [2]): 0.3a | Mortality (%) (H. meleagridis [2]): 25% and 25.00ab % | Cecum lesion score (H. meleagridis [3]): 1.3b | Liver lesion score (H. meleagridis [3]): 0.28ab | Mortality (%) (H. meleagridis [3]): 10% and 10a % | Cecum lesion score (H. meleagridis [4]): 0.85a | Liver lesion score (H. meleagridis [4]): 0.5ab | Mortality (%) (H. meleagridis [4]): 10% and 10.00ab %
